Source: publication PMC3733996 (Bioorganic & medicinal chemistry letters, 2013)

Molecular target: serotonin transporter (SERT) (Rattus norvegicus, UniProt P31652)
Experiment: Displacement of [3H]citalopram from serotonin transporter in rat brain tissue
Assay type: binding
Settings: ratio of Ki DAT / Ki SERT

Sequence of serotonin transporter (SERT) (P31652 whole entry): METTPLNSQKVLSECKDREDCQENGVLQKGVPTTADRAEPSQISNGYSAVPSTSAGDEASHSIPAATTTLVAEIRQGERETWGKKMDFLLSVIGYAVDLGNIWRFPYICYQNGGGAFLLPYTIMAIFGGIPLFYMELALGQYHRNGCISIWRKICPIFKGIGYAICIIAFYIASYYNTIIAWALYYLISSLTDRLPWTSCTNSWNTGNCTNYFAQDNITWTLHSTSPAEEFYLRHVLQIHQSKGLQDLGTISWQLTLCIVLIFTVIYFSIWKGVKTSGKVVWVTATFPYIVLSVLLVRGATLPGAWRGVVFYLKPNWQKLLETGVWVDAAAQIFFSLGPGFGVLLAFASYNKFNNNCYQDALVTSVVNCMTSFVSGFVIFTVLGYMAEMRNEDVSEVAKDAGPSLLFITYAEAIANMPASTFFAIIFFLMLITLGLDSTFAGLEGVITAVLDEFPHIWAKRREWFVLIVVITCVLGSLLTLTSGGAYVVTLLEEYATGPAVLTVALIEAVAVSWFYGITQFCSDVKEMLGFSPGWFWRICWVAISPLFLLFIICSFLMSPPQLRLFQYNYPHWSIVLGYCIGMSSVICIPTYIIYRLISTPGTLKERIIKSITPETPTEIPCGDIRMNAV

Compound	DAT/SERT
Cl.Clc1ccc(COC2(c3ccc(Cl)cc3)CNC2)cc1 [6e]	1,100
Cl.Clc1ccc(COC2(c3ccc(Cl)c(Cl)c3)CNC2)cc1 [6h]	1,000
